The source of these data is patent US7119217B2, “Tri(alkylcarboxylato)gallium (III) products and pharmaceutical compositions containing them” (Genta Incorporated, priority 2002, dated 2006).

Data set [1] deals with Caco-2 monolayer cells. Briefly: Caco-2 apical to basolateral (A to B) absorption/transport assay. As to conditions: for % Absorbed: Caco-2 monolayer, 37° C., 5% CO2; for % Absorbed / Trsp: apical to basolateral, 2 hours incubation; for Trsp: Caco-2 transport rate; for Ratio (Caco-2 transport ratio): ratio of the transport rate to the transport rate of the reference compound mannitol. A general note: Caco-2 cells form a polarised layer with tight junctions and transporters.
Text: (§1) Values for Caco-2 transport are also expressed herein as transport ratios that represent the ratio of the transport rate for the proband (e.g. tri(alkylcarboxylato) gallium(III) compound) to the transport rate of a reference compound. Mannitol was the reference compound used in the calculation of the Caco-2 transport ratios discussed herein.
(§2) The evaluation protocol of the apical to basolateral (A to B) absorption of a test article in Caco-2 monolayer cells is known to those of skill in the art as follows.
(§3) Caco-2 cells are plated in individual Transwells® in 24-well tissue culture plates and cultured for 3 days to establish the cultures. After 3 days, the cells are tested for transepithelial electrical resistance (TEER) as a measure of the formation of tight junctions between cells. Only cells with a TEER equal to or greater than about 330 Ω·cm^2 cm^2 are used. The proband or the control article (reference) is applied to the apical side of Caco-2 cells and incubated for 2 hours (37° C., 5% CO2). At t=2 hr, the media in each well are collected and stored until later analysis. Aliquots of the dosing solution are retained for analysis along with the samples.
(§4) For test samples, the analysis is repeated three times while the N value for all the control groups is six. The controls are [^3H]propranolol for fast transport and [^3H]mannitol for slow transport.
(§5) The gallium product proband and dosing solution samples are analyzed by inductive coupled plasma optical emission spectrometry (ICP-OCP) to measure gallium concentration. Any non-gallium test articles and dosing solution samples are analyzed by HPLC. Positive controls are analyzed using scintillation counting.

Assay in data set [2]: as above
Conditions: human, Caco-2.
Text: as §1, §2, §3, §4, §5

Consider `CC(C)NCC(O)COc1cccc2ccccc12` (stereo not drawn) [Propranalol], for which, in data set [1], the “% Absorbed” value is on record as 24.118%, the Trsp is 104.679 nm/s and the “Ratio (Caco-2 transport ratio)” value was determined as 9.3.

With “Tri(palmitato) Gallium (III) Product [Example 3]”, in data set [1], the “% Absorbed” value was found to be 31.579%, the Trsp was 137.060 nm/s and the “Ratio (Caco-2 transport ratio)” value is given as 12.1.

As to “Tri(octanoato) Gallium (III) Product [Example 1]”, in data set [1], the “% Absorbed” value came to 9.890%, the Trsp is 42.930 nm/s and the “Ratio (Caco-2 transport ratio)” value was 3.8.

Turning to `Cc1occc(=O)c1[O-].Cc1occc(=O)c1[O-].Cc1occc(=O)c1[O-].[Ga+3]` [Gallium Maltolate], in data set [1], the “% Absorbed” value was determined as 24.793%, the Trsp amounted to 107.610 nm/s and the “Ratio (Caco-2 transport ratio)” value worked out at 9.5.

On to `OC[C@@H](O)[C@@H](O)[C@H](O)[C@H](O)CO` [Mannitol], for which the Papp A→B at 2 h in data set [2] stood at 1.13 ×10⁻⁶ cm/s. For the same molecule, in data set [1], the “% Absorbed” value came to 2.603% and the “Ratio (Caco-2 transport ratio)” value was 1.

Consider “Tri(palmitato) Gallium (III) Product [Example 2]”, for which, in data set [1], the “% Absorbed” value is 72.000%, the Trsp is 312.500 nm/s and the “Ratio (Caco-2 transport ratio)” value was 27.7.

For orientation: Papp A→B means the apparent permeability from the apical to the basolateral side of a cell layer. A low value points to poor permeation.
